From patent publication US8791264B2 (Purdue Pharma L.P., priority 2006, dated 2014)

Target: T1, N-type calcium channel (NTCC) (Homo sapiens, UniProt Q00975)
T1 construct: host or cells: IMR32 cells differentiated with dibutyryl cAMP and bromodeoxyuridine
Test: FLIPR calcium mobilization assay for N-type calcium channel
Format: cell-based
Details: calcium mobilization in vitro assay; differentiated IMR32 cells
Procedure: Unless noted otherwise, cell culture reagents were purchased from Mediatech of Herndon, Md. IMR32 cells (American Type Culture Collection, ATCC, Manassas, Va.) were routinely cultured in growth medium consisting of minimum essential medium containing 10% fetal bovine serum (FBS, Hyclone, Logan, Utah), 100 U/mL penicillin, 100 μg/mL streptomycin, 2 mM L-glutamine, 1 mM sodium pyruvate, and 1× MEM non-essential amino acids. 80-90% confluent flasks of cells were differentiated using the following differentiation medium: Growth medium plus 1 mM dibutyryl cyclic AMP (Sigma, St. Louis, Mo.), and 2.5 μM bromodeoxyuridine (Sigma). Cells were differentiated for 8 days by replacing differentiation medium every 2-3 days.
FLIPR Calcium Mobilization Assay for N-Type Calcium Channel.
One day prior to performing this assay, differentiated IMR32 cells were treated with 1× CellStripper, and seeded on poly-D-lysine-coated 96-well clear-bottom black plates (Becton Dickinson, Franklin Lakes, N.J.) at 200,000 cells/well. On the day of the assay, the cell plates were washed with IMR32 buffer (127 mM NaCl, 1 mM KCl, 2 mM MgCl2, 700 μM NaH2PO4, 5 mM CaCl2, 5 mM NaHCO3, 8 mM HEPES, 10 mM glucose, pH 7.4), then pre-stimulated with KCl and loaded as follows: 0.05 mL of IMR32 buffer, 0.05 mL of each compound tested diluted in IMR32 buffer containing 20 μM nitrendipine (Sigma), and 0.1 mL KCl dissolved in IMR32 buffer, plus Fluo-4 were added (3 μM final concentration, Molecular Probes, Eugene, Oreg.). Final test compound concentrations ranged from about 846 pM to about 17 μM, final nitrendipine concentration was 5 μM, and final KCl concentration was 90 mM. After 1 hour, the cells were washed twice with 0.05 mL of each compound is tested in nitrendipine-containing IMR32 buffer (no KCl or Fluo-4), and then replaced with 0.1 mL of each compound tested in nitrendipine-containing IMR32 buffer. Plates were then transferred to a Fluorimetric Imaging Plate Reader (FLIPR^96, Molecular Devices, Inc., Sunnyvale, Calif.) for assay. The FLIPR measured basal Fluo-4 fluorescence for 315 seconds (i.e., 5 minutes and 15 seconds), then added 0.1 mL KCl agonist dissolved in IMR32 buffer and measured fluorescence for another 45 seconds. Final test compound concentrations on the cells after FLIPR read ranged from about 846 pM to about 17 μM, final nitrendipine concentration was 5 μM, and final KCl concentration was 90 mM. Data were collected over the entire time course and analyzed using Excel, Graph Pad Prism (version 3.02, Graph Pad, San Diego, Calif.), or an in-house non-linear regression analysis software.

T1 sequence (Q00975 whole entry): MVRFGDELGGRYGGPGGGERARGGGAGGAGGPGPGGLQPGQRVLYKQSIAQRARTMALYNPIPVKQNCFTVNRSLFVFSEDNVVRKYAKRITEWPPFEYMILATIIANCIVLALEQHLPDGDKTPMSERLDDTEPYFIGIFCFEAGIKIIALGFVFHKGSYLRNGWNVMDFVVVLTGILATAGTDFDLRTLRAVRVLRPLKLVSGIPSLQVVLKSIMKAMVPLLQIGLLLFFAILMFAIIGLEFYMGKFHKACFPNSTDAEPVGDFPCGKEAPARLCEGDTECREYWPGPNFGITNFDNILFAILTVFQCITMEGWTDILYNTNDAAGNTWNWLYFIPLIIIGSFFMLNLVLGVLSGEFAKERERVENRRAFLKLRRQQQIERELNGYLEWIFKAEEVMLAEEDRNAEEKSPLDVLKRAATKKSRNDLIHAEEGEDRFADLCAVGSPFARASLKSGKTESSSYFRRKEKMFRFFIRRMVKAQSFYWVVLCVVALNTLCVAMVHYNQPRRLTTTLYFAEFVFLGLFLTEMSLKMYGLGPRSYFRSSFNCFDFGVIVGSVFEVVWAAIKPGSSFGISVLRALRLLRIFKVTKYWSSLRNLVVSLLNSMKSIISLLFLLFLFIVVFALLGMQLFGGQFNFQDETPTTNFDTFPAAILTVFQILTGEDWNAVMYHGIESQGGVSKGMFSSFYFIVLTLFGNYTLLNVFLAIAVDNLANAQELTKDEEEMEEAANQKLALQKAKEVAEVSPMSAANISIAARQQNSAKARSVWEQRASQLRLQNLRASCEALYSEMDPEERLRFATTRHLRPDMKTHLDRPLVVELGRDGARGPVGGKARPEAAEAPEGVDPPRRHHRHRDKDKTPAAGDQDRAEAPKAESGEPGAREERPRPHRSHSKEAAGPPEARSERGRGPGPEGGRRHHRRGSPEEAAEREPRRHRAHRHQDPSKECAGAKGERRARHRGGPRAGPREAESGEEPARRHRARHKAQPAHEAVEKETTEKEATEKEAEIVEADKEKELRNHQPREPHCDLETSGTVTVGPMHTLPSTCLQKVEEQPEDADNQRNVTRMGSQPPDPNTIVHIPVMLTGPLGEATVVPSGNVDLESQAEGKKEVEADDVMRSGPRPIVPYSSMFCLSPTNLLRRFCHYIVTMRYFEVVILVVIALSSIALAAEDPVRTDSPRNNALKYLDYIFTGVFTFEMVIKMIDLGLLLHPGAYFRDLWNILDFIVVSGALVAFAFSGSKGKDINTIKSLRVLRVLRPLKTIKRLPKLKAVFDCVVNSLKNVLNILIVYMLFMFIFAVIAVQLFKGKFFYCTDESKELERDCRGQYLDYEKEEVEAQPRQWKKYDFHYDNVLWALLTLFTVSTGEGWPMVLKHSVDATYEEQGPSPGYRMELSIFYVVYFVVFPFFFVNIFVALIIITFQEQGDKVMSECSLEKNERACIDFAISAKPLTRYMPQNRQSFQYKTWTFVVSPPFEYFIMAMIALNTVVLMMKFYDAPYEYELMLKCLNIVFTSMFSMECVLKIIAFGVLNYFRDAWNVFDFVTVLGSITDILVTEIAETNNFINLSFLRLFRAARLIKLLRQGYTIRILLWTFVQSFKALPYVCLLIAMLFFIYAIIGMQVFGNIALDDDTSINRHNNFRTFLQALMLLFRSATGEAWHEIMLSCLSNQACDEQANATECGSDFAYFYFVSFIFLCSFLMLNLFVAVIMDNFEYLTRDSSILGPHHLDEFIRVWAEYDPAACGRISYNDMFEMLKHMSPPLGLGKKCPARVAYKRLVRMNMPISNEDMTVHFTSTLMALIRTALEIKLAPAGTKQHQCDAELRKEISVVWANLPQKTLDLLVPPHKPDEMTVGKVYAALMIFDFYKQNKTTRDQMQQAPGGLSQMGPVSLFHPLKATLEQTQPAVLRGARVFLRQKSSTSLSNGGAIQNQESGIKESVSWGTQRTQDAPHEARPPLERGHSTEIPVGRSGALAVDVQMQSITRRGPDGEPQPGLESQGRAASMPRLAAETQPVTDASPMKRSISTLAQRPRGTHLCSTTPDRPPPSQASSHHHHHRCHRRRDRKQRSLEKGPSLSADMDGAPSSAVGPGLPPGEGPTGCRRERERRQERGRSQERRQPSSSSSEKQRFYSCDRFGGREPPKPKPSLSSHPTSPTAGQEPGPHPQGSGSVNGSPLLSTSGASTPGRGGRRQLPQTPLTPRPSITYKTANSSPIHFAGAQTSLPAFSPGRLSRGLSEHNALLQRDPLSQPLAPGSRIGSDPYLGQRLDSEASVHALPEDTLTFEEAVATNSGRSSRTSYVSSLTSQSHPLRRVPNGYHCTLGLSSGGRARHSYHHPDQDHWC
T1 sequence (P54289 25-956 partner limits assumed): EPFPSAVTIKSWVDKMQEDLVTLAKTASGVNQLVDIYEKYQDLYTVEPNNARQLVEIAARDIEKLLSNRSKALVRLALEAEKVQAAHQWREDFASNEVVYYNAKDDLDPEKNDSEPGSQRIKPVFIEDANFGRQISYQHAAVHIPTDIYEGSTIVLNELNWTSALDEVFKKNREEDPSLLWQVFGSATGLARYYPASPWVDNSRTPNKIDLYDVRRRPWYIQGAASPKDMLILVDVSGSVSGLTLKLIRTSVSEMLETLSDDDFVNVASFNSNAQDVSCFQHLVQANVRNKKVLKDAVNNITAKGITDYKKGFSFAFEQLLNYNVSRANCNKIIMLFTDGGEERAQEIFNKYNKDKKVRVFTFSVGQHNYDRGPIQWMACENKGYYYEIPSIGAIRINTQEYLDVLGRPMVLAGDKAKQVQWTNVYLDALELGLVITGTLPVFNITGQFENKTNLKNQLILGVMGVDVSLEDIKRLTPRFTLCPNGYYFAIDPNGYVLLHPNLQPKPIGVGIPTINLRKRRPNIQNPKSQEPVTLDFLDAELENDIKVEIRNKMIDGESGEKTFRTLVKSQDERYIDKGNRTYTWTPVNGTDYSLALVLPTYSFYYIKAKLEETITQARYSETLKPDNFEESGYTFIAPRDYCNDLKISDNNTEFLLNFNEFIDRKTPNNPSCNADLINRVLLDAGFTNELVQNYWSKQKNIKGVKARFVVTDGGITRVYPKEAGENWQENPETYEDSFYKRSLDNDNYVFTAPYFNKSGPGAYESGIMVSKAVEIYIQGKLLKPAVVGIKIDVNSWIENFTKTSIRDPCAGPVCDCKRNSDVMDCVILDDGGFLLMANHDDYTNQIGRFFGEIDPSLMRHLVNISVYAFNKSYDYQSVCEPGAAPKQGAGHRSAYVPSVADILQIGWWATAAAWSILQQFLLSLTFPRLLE
T1 sequence (P54289 957-1103 partner limits assumed): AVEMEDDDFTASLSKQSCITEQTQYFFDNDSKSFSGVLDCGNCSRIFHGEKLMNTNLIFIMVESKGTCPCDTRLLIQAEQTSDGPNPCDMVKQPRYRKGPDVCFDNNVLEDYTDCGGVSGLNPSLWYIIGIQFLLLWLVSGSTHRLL
T1 sequence (P54284 whole entry partner): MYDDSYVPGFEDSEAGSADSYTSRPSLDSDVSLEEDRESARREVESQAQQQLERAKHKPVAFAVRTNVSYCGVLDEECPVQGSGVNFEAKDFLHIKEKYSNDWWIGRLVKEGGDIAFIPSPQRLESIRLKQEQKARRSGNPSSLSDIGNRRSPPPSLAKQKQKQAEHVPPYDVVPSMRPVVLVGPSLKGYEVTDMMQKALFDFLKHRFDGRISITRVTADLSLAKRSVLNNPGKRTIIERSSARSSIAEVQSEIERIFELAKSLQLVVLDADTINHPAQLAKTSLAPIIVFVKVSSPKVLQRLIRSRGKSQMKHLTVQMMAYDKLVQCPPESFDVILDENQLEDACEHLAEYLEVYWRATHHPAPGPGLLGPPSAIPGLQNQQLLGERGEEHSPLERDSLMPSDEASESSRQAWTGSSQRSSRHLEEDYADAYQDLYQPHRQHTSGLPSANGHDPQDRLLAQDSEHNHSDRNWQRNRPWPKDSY

| IC50 [nM] | Molecule |
| --- | --- |
| 2950 | 2-[4-(Benzenesulfonylmethylamino)-piperidin-1-yl]-N-(4-fluorophenyl)acetamide [Compound 47] |
| > 20000 | CC(C)CNC(=O)CN1CCC(N(C)S(=O)(=O)c2ccccc2)CC1 [2-[4-(benzenesulfonyl-methyl-amino)-piperidin-1-yl]-N-isobutyl-acetamide] |
| 3200 | CC(C)NC(=O)C(=O)N1CCC(N(C2CC2)S(=O)(=O)c2cccc(C(F)(F)F)c2)CC1 [2-{4-[cyclopropyl-(3-trifluoromethylbenzenesulfonyl)-amino]-piperidin-1-yl}-N-isopropyl-2-oxo-acetamide] |
| 1680 | CC(C)N(C1CCN(C(=O)CNc2ccc(F)cc2)CC1)S(=O)(=O)c1cccc(C(F)(F)F)c1 [Compound 17, N-{1-[2-(4-Fluorophenylamino)acetyl]-piperidin-4-yl}-N-isopropyl-3-trifluoromethylbenzenesulfonamide] |
| 1330 | O=C(CC(=O)N1CCC(N(C2CC2)S(=O)(=O)c2cccc(C(F)(F)F)c2)CC1)Nc1ccc(F)cc1F [Compound 27, 3-{4-[Cyclopropyl-(3-trifluoromethylbenzenesulfonyl)amino]-piperidin-1-yl}-N-(2,4-difluorophenyl)-3-oxo-propionamide] |
| 4900 | CN(C1CCN(C(=O)CC(=O)Nc2ccc(F)cc2F)CC1)S(=O)(=O)c1cccc(C(F)(F)F)c1 [Compound 28, N-(2,4-Difluorophenyl)-3-{4-[methyl-(3-trifluoromethylbenzene-sulfonyl)amino]-piperidin-1-yl}-3-oxo-propionamide] |
| 8860 | O=C(CC(=O)N1CCC(N(C2CC2)S(=O)(=O)c2cccc(Cl)c2)CC1)Nc1ccc(F)cc1F [Compound 29, 3-{4-[(3-Chlorobenzenesulfonyl)-cyclopropylamino]-piperidin-1-yl}-N-(2,4-difluorophenyl)-3-oxo-propionamide] |
| 10000 to 20000 | CC(C)N(C1CCN(CC(N)=O)CC1)S(=O)(=O)c1cccc(C(F)(F)F)c1 [Compound 33, 2-{4-[Isopropyl-(3-trifluoromethylbenzenesulfonyl)amino]-piperidin-1-yl}-acetamide] |
| 5930 | Cc1cccc(S(=O)(=O)N(C2CC2)C2CCN(CC(=O)NCC(C)C)CC2)c1 [Compound 35, 2-{4-[Cyclopropyl-(toluene-3-sulfonyl)amino]-piperidin-1-yl}-N-isobutylacetamide] |
| 8000 | CC(C)CNC(=O)CN1CCC(N(C2CC2)S(=O)(=O)c2cccc(F)c2)CC1 [Compound 36, 2-{4-[Cyclopropyl-(3-fluorobenzenesulfonyl)amino]-piperidin-1-yl}-N-isobutylacetamide] |
| > 20000 | CC(C)CNC(=O)CN1CCC(N(C2CC2)S(=O)(=O)c2ccccc2)CC1 [Compound 37, 2-[4-(Benzenesulfonyl-cyclopropylamino)-piperidin-1-yl]-N-isobutylacetamide] |
| 1130 | Cc1cccc(C)c1NC(=O)CN1CCC(N(C(C)C)S(=O)(=O)c2cccc(C(F)(F)F)c2)CC1 [Compound 42a, N-(2,6-Dimethylphenyl)-2-{4-[isopropyl-(3-trifluoromethylbenzenesulfonyl)amino]-piperidin-1-yl}-acetamide] |
| 1630 | Cc1ccc(NC(=O)CN2CCC(N(C(C)C)S(=O)(=O)c3cccc(C(F)(F)F)c3)CC2)cc1 [Compound 42e, 2-{4-[Isopropyl-(3-trifluoromethylbenzenesulfonyl)amino]-piperidin-1-yl}-N-p-tolyl-acetamide] |
| 1390 | Cc1cccc(S(=O)(=O)N(C2CC2)C2CCN(CC(=O)Nc3ccc(F)cc3)CC2)c1 [Compound 45, 2-{4-[Cyclopropyl-(toluene-3-sulfonyl)amino]-piperidin-1-yl}-N-(4-fluorophenyl)acetamide] |
| 2030 | O=C(CN1CCC(N(C2CC2)S(=O)(=O)c2cccc(F)c2)CC1)Nc1ccc(F)cc1 [Compound 46, 2-{4-[Cyclopropyl-(3-fluorobenzenesulfonyl)amino]-piperidin-1-yl}-N-(4-fluorophenyl)acetamide] |
| 2260 | O=C(CN1CCC(N(C2CC2)S(=O)(=O)c2ccccc2)CC1)Nc1ccc(F)cc1 [Compound 48, 2-[4-(Benzenesulfonylcyclopropylamino)-piperidin-1-yl]-N-(4-fluorophenyl)acetamide] |
| 1310 | O=C(CN1CCC(N(C2CC2)S(=O)(=O)c2ccc(Cl)cc2)CC1)Nc1ccc(F)cc1 [Compound 49, 2-{4-[(4-Chlorobenzenesulfonyl)cyclopropylamino]-piperidin-1-yl}-N-(4-fluorophenyl)acetamide] |
| 2160 | CN(C1CCN(CC(=O)Nc2nc3ccc(F)cc3s2)CC1)S(=O)(=O)c1cccc(C(F)(F)F)c1 [Compound 65] |
| 2530 | O=C(CN1CCC(N(C2CC2)S(=O)(=O)c2cccc(Cl)c2)CC1)Nc1cc(C(F)(F)F)cc(C(F)(F)F)c1 [Compound 66, N-(3,5-Bis-trifluoromethylphenyl)-2-{4-[(3-chlorobenzenesulfonyl)-cyclopropylamino]-piperidin-1-yl}-acetamide] |
| 4170 | O=C(CN1CCC(N(C2CC2)S(=O)(=O)c2ccc(Cl)cc2)CC1)Nc1cc(C(F)(F)F)cc(C(F)(F)F)c1 [Compound 67, N-(3,5-Bis-trifluoromethylphenyl)-2-{4-[(4-chlorobenzenesulfonyl)-cyclopropylamino]-piperidin-1-yl}-acetamide] |
| 1590 | CN(C1CCN(CC(=O)Nc2cc(C(F)(F)F)cc(C(F)(F)F)c2)CC1)S(=O)(=O)c1ccccc1 [Compound 68, 2-[4-(Benzenesulfonyl-methyl-amino)-piperidin-1-yl]-N-(3,5-bis-trifluoromethylphenyl)-acetamide] |
| 3810 | Cc1cccc(S(=O)(=O)N(C2CC2)C2CCN(CC(=O)Nc3cc(C(F)(F)F)cc(C(F)(F)F)c3)CC2)c1 [Compound 69, N-(3,5-Bis-trifluoromethylphenyl)-2-{4-[cyclopropyl-(toluene-3-sulfonyl)amino]-piperidin-1-yl}-acetamide] |
| > 20000 | O=C(CN1CCC(N(C2CC2)S(=O)(=O)c2cccc(C(F)(F)F)c2)CC1)Nc1ccc(C(F)(F)F)cc1C(F)(F)F [Compound 72, N-(2,4-Bis-trifluoromethylphenyl)-2-{4-[cyclopropyl-(3-trifluoromethylbenzenesulfonyl)amino]-piperidin-1-yl}-acetamide] |
| 1830 | O=C(CN1CCC(N(C2CC2)S(=O)(=O)c2cccc(C(F)(F)F)c2)CC1)Nc1ccc(Cl)cc1OC(F)(F)F [Compound 76, N-(4-Chloro-2-trifluoromethoxyphenyl)-2-{4-[cyclopropyl-(3-trifluoromethylbenzenesulfonyl)amino]-piperidin-1-yl}-acetamide] |
| 6630 | O=C(CN1CCC(N(C2CC2)S(=O)(=O)c2cccc(C(F)(F)F)c2)CC1)Nc1cc(C(F)(F)F)ccc1Cl [Compound 77, N-(2-Chloro-5-trifluoromethylphenyl)-2-{4-[cyclopropyl-(3-trifluoromethylbenzenesulfonyl)amino]-piperidin-1-yl}-acetamide] |
| 3990 | COc1ccc(Cl)cc1NC(=O)CN1CCC(N(C2CC2)S(=O)(=O)c2cccc(C(F)(F)F)c2)CC1 [Compound 82, N-(5-Chloro-2-methoxyphenyl)-2-{4-[cyclopropyl-(3-trifluoromethyl-benzenesulfonyl)amino]-piperidin-1-yl}-acetamide] |
| 10000 to 20000 | COc1ccc(C(F)(F)F)cc1NC(=O)CN1CCC(N(C2CC2)S(=O)(=O)c2cccc(C(F)(F)F)c2)CC1 [Compound 83, 2-{4-[Cyclopropyl-(3-trifluoromethylbenzenesulfonyl)amino]-piperidin-1-yl}-N-(2-methoxy-5-trifluoromethylphenyl)-acetamide] |
| 1730 | COc1ccc(CN[C@H](C(=O)N2CCC(N(C(C)C)S(=O)(=O)c3cccc(C(F)(F)F)c3)CC2)C(C)C)cc1 [Compound 88a, (S)—N-Isopropyl-N-{1-[2-(4-methoxybenzylamino)-3-methylbutyryl]-piperidin-4-yl}-3-trifluoromethylbenzenesulfonamide] |
| 9560 | CC(NCCCn1ccnc1)C(=O)N1CCC(N(C(C)C)S(=O)(=O)c2cccc(C(F)(F)F)c2)CC1 (centres unmarked) [Compound 90, N-{1-[2-(3-Imidazol-1-yl-propylamino)propionyl]-piperidin-4-yl}-N-isopropyl-3-trifluoromethylbenzenesulfonamide] |
